{
  "source": "patent US10240124B2",
  "about": "“Cell culture substrate comprising a laminin and a cadherin” (BioLamina AB, priority 2011, dated 2019)",
  "key": {"[1]": {"system": "Human ES cells", "assay": "Expansion of hES cells on r-laminin-521 with single cell dissociation passaging (Example 1)", "assay_type": "cell-based", "text": "In further aspects, the present disclosure provides a method to expand human embryonic stem cells in pluripotent state. It has been shown that human embryonic stem cells plated in single cell suspension on laminin-521 survived and proliferated at a higher rate than that of classical methods known in the art. After 3 passages (1 month) the cells passaged in a single cell suspension underwent the same number of cell divisions as that of cell cultures passaged in pieces on Matrigel after 20 passages (3 months). Therefore, the new method was advantageous in terms of time and labor, which may provide significant economical profits.\nHuman ES cells were cultured on r-laminin-521-coated laboratory dishes in chemically defined O3 medium (described in Rodin et al., Nature Biotechnol., vol. 28, pp. 611-615 (2010)) at 37° C. in 5% CO2. Cells were routinely passed once every 10-12 days by exposure to Trypsin-EDTA solution (GIBCO Invitrogen) for 5 minutes at 37° C. They were then gently pipetted to break into single-cell suspension and defined trypsin inhibitor (GIBCO Invitrogen) was added. The cell suspension was centrifuged […], the supernatant discarded, the cell pellet resuspended in prewarmed O3 medium, and cells were then passed through a 40 μm sieve. After that cells were plated on new r-laminin-521-coated dishes at a concentration 30 Kcells/cm^2 (1:25-1:30 split ratio). Cells were fed once a day with fresh medium prewarmed in an incubator for 1 hour, except for the first day after a passage, when only a few drops of fresh medium were added. Control cells of the same line were cultured on Matrigel (BD Biosciences) in O3 medium as described in Rodin et al., Nature Biotechnol., vol. 28, pp. 611-615 (2010). Control cells were passaged in pieces."}, "[2]": {"target": "Integrin α6β1 (Homo sapiens, UniProt P05556+P23229)", "sequence (P23229 24-1130)": "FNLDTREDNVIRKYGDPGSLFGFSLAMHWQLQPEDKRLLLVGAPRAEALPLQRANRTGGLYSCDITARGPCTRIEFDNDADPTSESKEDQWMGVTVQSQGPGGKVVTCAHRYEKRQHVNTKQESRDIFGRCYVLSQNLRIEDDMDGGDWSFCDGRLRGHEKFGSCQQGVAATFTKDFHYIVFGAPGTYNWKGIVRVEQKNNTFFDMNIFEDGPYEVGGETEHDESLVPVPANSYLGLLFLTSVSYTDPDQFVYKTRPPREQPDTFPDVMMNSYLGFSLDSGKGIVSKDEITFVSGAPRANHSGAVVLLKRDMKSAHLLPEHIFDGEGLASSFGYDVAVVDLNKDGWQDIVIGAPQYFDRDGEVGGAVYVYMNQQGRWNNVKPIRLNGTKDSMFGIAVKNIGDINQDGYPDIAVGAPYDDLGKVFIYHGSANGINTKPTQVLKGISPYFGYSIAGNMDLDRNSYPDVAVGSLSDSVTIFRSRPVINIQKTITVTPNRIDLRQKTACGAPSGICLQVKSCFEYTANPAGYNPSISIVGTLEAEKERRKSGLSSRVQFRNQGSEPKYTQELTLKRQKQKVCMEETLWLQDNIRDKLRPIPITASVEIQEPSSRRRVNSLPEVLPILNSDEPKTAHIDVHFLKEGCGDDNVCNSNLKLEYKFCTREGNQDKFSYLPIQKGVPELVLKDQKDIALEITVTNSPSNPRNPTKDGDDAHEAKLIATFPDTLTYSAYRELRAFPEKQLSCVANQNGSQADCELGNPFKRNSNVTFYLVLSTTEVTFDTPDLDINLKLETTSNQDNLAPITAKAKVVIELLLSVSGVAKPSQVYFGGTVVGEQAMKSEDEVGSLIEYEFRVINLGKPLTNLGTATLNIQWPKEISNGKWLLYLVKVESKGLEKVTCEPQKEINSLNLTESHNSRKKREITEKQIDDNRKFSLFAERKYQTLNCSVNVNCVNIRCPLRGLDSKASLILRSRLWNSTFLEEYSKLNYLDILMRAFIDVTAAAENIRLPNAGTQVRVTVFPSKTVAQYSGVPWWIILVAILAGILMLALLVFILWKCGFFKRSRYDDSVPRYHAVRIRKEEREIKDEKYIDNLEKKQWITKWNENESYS", "sequence (P05556 21-798)": "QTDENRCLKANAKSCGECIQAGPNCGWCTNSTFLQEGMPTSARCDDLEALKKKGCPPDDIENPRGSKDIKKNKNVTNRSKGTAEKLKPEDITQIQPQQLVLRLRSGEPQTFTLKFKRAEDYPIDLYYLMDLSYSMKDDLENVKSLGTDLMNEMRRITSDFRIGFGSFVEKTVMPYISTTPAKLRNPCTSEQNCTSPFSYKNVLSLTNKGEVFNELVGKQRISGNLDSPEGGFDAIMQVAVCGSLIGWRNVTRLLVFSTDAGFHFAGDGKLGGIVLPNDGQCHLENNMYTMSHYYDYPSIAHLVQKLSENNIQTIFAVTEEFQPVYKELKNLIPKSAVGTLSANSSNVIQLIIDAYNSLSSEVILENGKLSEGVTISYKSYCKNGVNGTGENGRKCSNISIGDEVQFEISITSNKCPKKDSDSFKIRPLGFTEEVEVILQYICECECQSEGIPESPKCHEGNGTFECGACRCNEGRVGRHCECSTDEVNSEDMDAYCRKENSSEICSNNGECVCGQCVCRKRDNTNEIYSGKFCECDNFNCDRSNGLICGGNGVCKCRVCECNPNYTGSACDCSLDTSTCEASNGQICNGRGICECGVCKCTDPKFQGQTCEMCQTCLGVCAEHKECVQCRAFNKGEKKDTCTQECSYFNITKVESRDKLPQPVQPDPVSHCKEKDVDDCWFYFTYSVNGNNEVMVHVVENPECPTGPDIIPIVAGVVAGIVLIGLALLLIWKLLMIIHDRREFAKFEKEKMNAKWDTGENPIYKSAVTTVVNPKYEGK", "conditions": "cited from earlier work"}, "[3]": {"system": "Human ES cells", "assay": "Real-time quantitative RT-PCR of Oct4 and Nanog (Example 1)", "assay_type": "cell-based", "conditions": "FIG. 11", "experimental": "Total RNA was isolated and cDNA was synthesized as described in Rodin et al., Nature Biotechnol., vol. 28, pp. 611-615 (2010). Real-time quantitative RT-PCR Taqman assays were performed using the Applied Biosystems 7300 Real-Time PCR System. All reactions were done in quadruplicate with predeveloped gene expression assay mix (Applied Biosystems) containing primers and a probe for the mRNA of interest. Additional reactions for each experiment included predeveloped gene expression assay mix for GAPDH, used to normalize the RNA input. All data were analyzed with 7300 System SDS Software version 1.4."}, "[4]": {"system": "Human ES cells", "assay": "FACS analysis for OCT4 (Example 1)", "assay_type": "cell-based", "conditions": "after several single cell suspension passages, O3 medium, FIG. 9 and 10", "experimental": "OCT4 expression was analyzed as described in Ludwig, T. E. et al. Derivation of human embryonic stem cells in defined conditions. Nat. Biotechnol. 24, 185-187 (2006). Cells were run on FACSCalibur Flow Cytometer (Becton Dickinson). Data were analyzed with CellQuest software (Becton Dickinson)."}, "[5]": {"system": "hES cells", "assay": "In vivo imaging and migration assay", "assay_type": "cell-based, human", "experimental": "24-well plates were coated by extracellular matrix proteins and blocked by O3 medium containing bovine serum albumin. The ES cells were plated at cell density of 30,000-40,000 cells/cm^2 onto extracellular matrix-coated plates and left to adhere for half an hour in a cell incubator. After that, the plate was transferred into high content imaging system Operetta (PerkinElmer) equipped with environmental control unit, which allowed to keep 37° C., 5% CO2. For two movies that were made, the brightfield images were taken once in 15 minutes during 24 hours after plating using Harmony software (PerkinElmer), exported, and analyzed using ImageJ software (NIH, the US). For migration assay the images were taken every seven minutes during 18 hours after plating. Images acquired between the fifth and seventh hours after plating were analyzed using MTrackJ plug-in (University Medical Center, Rotterdam, The Netherlands). 100 attached cells on each coating were traced and mean distances from the current to the previous point of the track were calculated. Error bars show standard error of the mean s.e.m. (n=100)."}, "[6]": {"system": "hES cells", "assay": "Cell adhesion assay, 1 hour (Example 2)", "assay_type": "cell-based, human", "conditions": "compared with Matrigel or LN-111, not shown", "experimental": "Tissue cell culture plates were coated overnight at 4° C. with sterile solutions of the ECM proteins, such as human recombinant LN-521, all at a concentration of 30 μg/ml (5 μg/cm^2). Control plates were coated with Matrigel according to the STEMCELL Technologies' instructions. Prior to use, dishes were pre-warmed in an incubator for one hour after which prewarmed O3 medium was added without additional washing of the dish. After applying a fresh LN-521 solution to a new dish, the remaining LN-521 solution could be used at least once more. All the adhesion, survival, and inhibition of survival experiments were carried out using fresh coating materials.\nBriefly, 96-well plates were coated by extracellular matrix proteins as described above and blocked by O3 medium containing bovine serum albumin. The ES cells were plated at cell density of 50,000 cells/cm^2 onto extracellular matrix-coated plates and left to adhere for 1 hour in a cell incubator. After that the plates were washed 3 times with the medium to remove the non-adherent cells, and then the adherent cells were fixed for 20 minutes by 5% glutaraldehyde, stained by 0.1% Crystal Violet. (Kebo Lab, Spanga, Sweden, http://www.kebolab.se). After one hour and 3 washes with water, Crystal Violet was extracted with 10% acetic acid and quantified by measuring optical density at 570 nm. All the experiments were performed in quadruplicate."}, "[7]": {"system": "human embryonic stem cells", "assay": "Survival of hES cells plated in single cell suspension on precoated dishes (description)", "assay_type": "cell-based", "conditions": "O3 medium, 30 Kcells/cm^2", "text": "In other aspects, the present disclosure provides a new material, isolated laminin-521, which permits human embryonic stem cell survival after dissociation into single cell suspension. The stem cells were dissociated into single cell suspension by Trypsin-EDTA treatment, pelleted by centrifugation, resuspended into O3 medium, filtered through a 40 μm sieve, and plated at a density of 30 Kcells/cm^2 on cell culture dishes precoated by either isolated laminin-521, laminin-511, or Matrigel. After one day in culture, the cells plated on Matrigel died, as is known in the art."}},
  "data": [
    {"substance": "LN-521: protein formed by joining α5, β2 and γ1 laminin chains; human recombinant, produced in HEK293 cells", "values": [
      {"measurement": "passages in single cell suspension giving the same number of cell divisions as cultures passaged in pieces on Matrigel after 20 passages (3 months)", "setting": "[1]; 1 month", "result": 3, "unit": "passages"},
      {"measurement": "passages to the same number of cell doublings as stem cells after 20 passages (100 days) by conventional methods", "setting": "[1]; 1 month, FIG. 8", "result": 3, "unit": "passages"},
      {"measurement": "increase in the number of cells versus time compared with Matrigel", "setting": "[1]; FIG. 8", "result": "much faster rate"},
      {"measurement": "proliferation rate compared with classical methods", "setting": "[1]; plated in single cell suspension", "result": "higher rate"},
      {"measurement": "passages of robust proliferation at a stable and high rate", "setting": "[1]; single cell passaging every 10-12 days, 1:25 to 1:30, 3 months", "result": "at least 9 passages"},
      {"measurement": "binding affinity of integrin α6β1 compared with LN-111", "setting": "[2]", "result": "higher than that for LN-111"},
      {"measurement": "number of mRNA transcripts of Oct4 and Nanog compared with Matrigel", "setting": "[3]", "result": "higher numbers of transcripts"},
      {"measurement": "percentage of Oct4 positive (pluripotent) cells compared with Matrigel", "setting": "[4]", "result": "much higher percentage"},
      {"measurement": "cell migration by imaging compared with Matrigel", "setting": "[5]; 24 hours imaging", "result": "much faster"},
      {"measurement": "motility of hES cells compared with other coatings", "setting": "[5]; between the fifth and seventh hours after plating, FIG. 14", "result": "higher than that of the cells on other coatings"},
      {"measurement": "spreading of the cells after one hour", "setting": "[6]", "result": "clearly better"},
      {"measurement": "survival of human embryonic stem cells after one day in culture", "setting": "[7]", "result": "survived and started to proliferate"}
    ]}
  ]
}
